Test results as given in US5100910A, “Aryl substituted tetrazole derivatives, and application thereof in therapeutics” (Delalande S.A., priority 1988, dated 1992).

Columns and labels:
MAO-B = biological target: T1, MAO-B (Rattus norvegicus, UniProt P19643); experiment: In vitro inhibition of monoamine oxidase B (substrate phenylethylamine, PEA; mitochondrial suspension of rat brain); format: biochemical; settings: for IC50: PEA substrate, 20 min preincubation, reaction 10 min
T1 construct: using, as enzyme source, a mitochrondrial suspension of the brain of a rat; from tissue; host or cells: rat brain, mitochondrial suspension
T1 sequence (P19643 1-520): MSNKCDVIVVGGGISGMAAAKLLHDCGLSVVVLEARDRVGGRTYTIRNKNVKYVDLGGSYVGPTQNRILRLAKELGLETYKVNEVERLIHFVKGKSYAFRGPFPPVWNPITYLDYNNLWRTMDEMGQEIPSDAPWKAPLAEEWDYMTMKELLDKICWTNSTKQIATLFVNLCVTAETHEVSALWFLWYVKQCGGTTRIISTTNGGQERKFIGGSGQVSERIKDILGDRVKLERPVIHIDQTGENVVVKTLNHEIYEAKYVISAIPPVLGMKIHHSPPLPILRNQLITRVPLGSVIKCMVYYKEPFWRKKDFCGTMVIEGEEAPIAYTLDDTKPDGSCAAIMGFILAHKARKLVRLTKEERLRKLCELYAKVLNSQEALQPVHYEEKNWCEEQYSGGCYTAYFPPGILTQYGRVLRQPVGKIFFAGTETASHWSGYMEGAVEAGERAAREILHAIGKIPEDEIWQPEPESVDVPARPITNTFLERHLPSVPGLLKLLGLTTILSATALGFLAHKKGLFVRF
Procedure: The quantitative determination of the MAO, activity was made up by using, as enzyme source, a mitochrondrial suspension of the brain of a rat. The standard determination consists in preincubating the enzyme for 20 minutes in the absence then in the presence of the inhibitors. […] The operating method used is that of the protocol of P. C. Baker, Dev. Biol. 14, 267 (1966). The results expressed in terms of CI50 (50% inhibiting concentration) obtained with a certain number of derivatives (I) are shown in tables VII and VIII hereafter.

mice = settings: mouse, in vivo, 1500 mg/kg
MAO-A = biological target: T2, MAO-A (Rattus norvegicus, UniProt P21396); experiment: In vitro inhibition of monoamine oxidase A (substrate serotonine, 5-HT; mitochondrial suspension of rat brain); format: biochemical; settings: 5-HT substrate; for IC50: Table VII, 20 min preincubation, reaction 40 min; for inhibition at 1 µM: read-out: % of inhibition of MAO-A at a concentration of 10^-6 M, Table VIII, at a concentration of 10^-6 M
T2 construct: using, as enzyme source, a mitochrondrial suspension of the brain of a rat; from tissue; host or cells: rat brain, mitochondrial suspension
T2 sequence (P21396 1-526): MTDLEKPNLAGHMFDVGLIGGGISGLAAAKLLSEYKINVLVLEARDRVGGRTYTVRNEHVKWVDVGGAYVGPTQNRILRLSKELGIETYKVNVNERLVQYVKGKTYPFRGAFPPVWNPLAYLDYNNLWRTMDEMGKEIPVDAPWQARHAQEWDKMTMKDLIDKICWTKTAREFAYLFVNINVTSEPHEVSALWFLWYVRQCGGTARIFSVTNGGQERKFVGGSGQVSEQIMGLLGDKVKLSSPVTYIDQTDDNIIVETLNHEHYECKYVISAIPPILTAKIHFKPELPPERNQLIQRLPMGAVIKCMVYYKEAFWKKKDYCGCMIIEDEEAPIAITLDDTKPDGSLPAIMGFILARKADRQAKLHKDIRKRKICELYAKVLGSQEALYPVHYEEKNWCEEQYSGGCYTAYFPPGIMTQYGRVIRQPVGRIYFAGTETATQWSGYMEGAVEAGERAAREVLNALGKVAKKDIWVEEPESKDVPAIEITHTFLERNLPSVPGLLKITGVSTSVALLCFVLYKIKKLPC
Procedure: The quantitative determination of the MAO, activity was made up by using, as enzyme source, a mitochrondrial suspension of the brain of a rat. The standard determination consists in preincubating the enzyme for 20 minutes in the absence then in the presence of the inhibitors. The activities are determined by using respectively serotonine (5-HT) and phenylethylamine (PEA) as substrates of the MAO-A and of MAO-B, the reaction times being 40 minutes with 5-HT and 10 minutes with PEA. The operating method used is that of the protocol of P. C. Baker, Dev. Biol. 14, 267 (1966).
The results expressed in terms of CI50 (50% inhibiting concentration) obtained with a certain number of derivatives (I) are shown in tables VII and VIII hereafter.

Row | Compound | IC50 (MAO-B; Table VII) | inhibition at 1 µM (MAO-A) | IC50 (MAO-B; Table VIII) | also measured
1 | N#CCCCn1nnc(-c2ccccc2)n1 [5-phenyl 2-tetrazole butyronitrile, reference compound] |  |  |  | pharmacological activity: selective inhibition of MAO-B (MAO-B): selective inhibitiopn of the monoamine oxidase of type B (MAO-B)
2 | N#CCCCCn1nnc(-c2ccccc2)n1 [5-phenyl 2-tetrazole valeronitrile, reference compound] |  |  |  | pharmacological activity: selective inhibition of MAO-B (MAO-B): selective inhibitiopn of the monoamine oxidase of type B (MAO-B)
3 | N#CCCn1nnc(-c2ccc(OCc3cccc(Cl)c3)cc2)n1 [Code No. 1, 5-[4-(3-chlorobenzyloxy)phenyl] 2-tetrazole propanenitrile] | 2.2 nM |  |  | toxicity after oral administration (mice): no toxicity was observed; IC50 (MAO-A): 150000 nM
4 | N#CCCn1nnc(-c2ccc(OCc3ccccc3)cc2)n1 [Code No. 7] | 2.3 nM |  |  | toxicity after oral administration (mice): no toxicity was observed; IC50 (MAO-A): 86000 nM
5 | N#CCCn1nnc(-c2ccc(-c3ccccc3)cc2)n1 [compound 13] |  |  |  | IC50 (MAO-A): 7800 nM
6 | N#CCCCn1nnc(-c2ccc(-c3ccccc3)cc2)n1 [compound 14] | 1200 nM |  |  | IC50 (MAO-A): 9600 nM
7 | N#CCCCCCCn1nnc(-c2ccc(-c3ccccc3)cc2)n1 [compound 16] | 5400 nM |  |  | IC50 (MAO-A): 46000 nM
8 | OCCn1nnc(-c2ccc(OCc3ccccc3)cc2)n1 [compound 17] |  |  |  | toxicity after oral administration (mice): no toxicity was observed
9 | OCCn1nnc(-c2ccc(OCc3ccccc3Cl)cc2)n1 [compound 18] | 5.5 nM |  |  | IC50 (MAO-A): 88000 nM
10 | OCCn1nnc(-c2ccc(OCc3cccc(Cl)c3)cc2)n1 [compound 19] |  |  |  | toxicity after oral administration (mice): no toxicity was observed
11 | OCCn1nnc(-c2ccc(OCc3ccc(Cl)cc3)cc2)n1 [compound 20] | 8 nM |  |  | IC50 (MAO-A): 60000 nM
12 | OCCn1nnc(-c2ccc(OCc3ccc(Cl)c(Cl)c3)cc2)n1 [compound 23] | 24 nM |  |  | IC50 (MAO-A): 140000 nM
13 | OCCCCCCn1nnc(-c2ccc(-c3ccccc3)cc2)n1 [compound 27] | 16400 nM |  |  | IC50 (MAO-A): 80000 nM
14 | N#CCn1nnc(-c2ccc(OCc3ccccc3)cc2)n1 [compound 29] |  | 3% | 100 nM | 
15 | COCn1nnc(-c2ccc(OCc3ccccc3)cc2)n1 [compound 30] | 1600 nM |  |  | 
16 | Cc1ccc(COc2ccc(-c3nnn(CC#N)n3)cc2)cc1 [compound 31] |  |  | 1600 nM | 
17 | Cc1ccc(COc2ccc(-c3nnn(CCC#N)n3)cc2)cc1 [compound 32] | 570 nM |  |  | 
18 | Cc1ccc(COc2ccc(-c3nnn(CCO)n3)cc2)cc1 [compound 33] |  | 0% | 8000 nM | 
19 | Cc1cccc(COc2ccc(-c3nnn(CCC#N)n3)cc2)c1 [compound 35] |  | 5% | 200 nM | 
20 | Cc1cccc(COc2ccc(-c3nnn(CCO)n3)cc2)c1 [compound 36] |  | 2% | 300 nM | 
21 | Cc1ccccc1COc1ccc(-c2nnn(CC#N)n2)cc1 [compound 37] |  | 10% | 160 nM | 
22 | Cc1ccccc1COc1ccc(-c2nnn(CCC#N)n2)cc1 [compound 38] |  | 6% | 110 nM | 
23 | Cc1ccccc1COc1ccc(-c2nnn(CCO)n2)cc1 [compound 39] |  | 3% | 290 nM | 

Row | Compound | IC50 (MAO-B; Table VII) | inhibition at 1 µM (MAO-A) | IC50 (MAO-B; Table VIII) | also measured
24 | COc1ccc(COc2ccc(-c3nnn(CCC#N)n3)cc2)cc1 [compound 41] |  | 9% | 3400 nM | 
25 | COc1ccc(COc2ccc(-c3nnn(CCO)n3)cc2)cc1 [compound 42] | 4700 nM |  |  | 
26 | COc1cccc(COc2ccc(-c3nnn(CCC#N)n3)cc2)c1 [compound 44] |  | 0% | 400 nM | 
27 | COc1cccc(COc2ccc(-c3nnn(CCO)n3)cc2)c1 [compound 45] |  | 7% | 800 nM | 
28 | N#CCn1nnc(-c2ccc(OCc3ccc(F)cc3)cc2)n1 [compound 46] |  | 6% | 170 nM | 
29 | N#CCCn1nnc(-c2ccc(OCc3ccc(F)cc3)cc2)n1 [compound 47] |  | 2% | 210 nM | 
30 | OCCn1nnc(-c2ccc(OCc3ccc(F)cc3)cc2)n1 [compound 48] |  | 2% | 270 nM | 
31 | Cc1ccc(COc2ccc(-c3nnnn3CC#N)cc2)cc1 [compound 50] |  | 12% | 15 nM | 
32 | COc1ccc(COc2ccc(-c3nnnn3CCO)cc2)cc1 [compound 51] | 890 nM |  | 900 nM | 
33 | N#CCn1nnnc1-c1ccc(OCc2ccc(F)cc2)cc1 [compound 52] |  | 15% | 24 nM | 
34 | OCCn1nnnc1-c1ccc(OCc2ccc(F)cc2)cc1 [compound 53] |  | 3% | 360 nM | 
35 | N#CCCn1nc(-c2ccc(OCc3ccccc3)cc2)oc1=O [compound 54] | 6.4 nM |  |  | 
36 | N#CCCn1nc(-c2ccc(OCc3ccccc3)cc2)oc1=S [compound 55] | 9.3 nM |  |  | 
37 | N#CCCn1nc(-c2ccc(OCc3ccccc3)cc2)sc1=O [compound 56] | 16 nM |  |  | 
38 | N#CCCn1nc(-c2ccc(OCc3ccccc3)cc2)sc1=S [compound 57] | 62 nM |  |  | 
39 | OCCn1nnnc1-c1ccc(OCc2ccccc2I)cc1 [compound 58] |  | 3% | 3600 nM | 
40 | N#CCn1nnnc1-c1ccc(OCc2ccccc2)cc1 [compound 59] |  | 4% | 67 nM | 
41 | Cc1ccccc1COc1ccc(-c2nnnn2CCC#N)cc1 [compound 60] |  | 17% | 480 nM | 
42 | Cc1cccc(COc2ccc(-c3nnnn3CCC#N)cc2)c1 [compound 61] |  | 1% | 270 nM | 
43 | CN(C)CCn1nnc(-c2ccc(OCc3ccccc3)cc2)n1 [compound 64] |  | 15% | 280 nM | 
44 | BrCCn1nnc(-c2ccc(OCc3ccccc3)cc2)n1 [compound 65] |  | 4% | 90 nM | 
45 | CC(=O)NCCn1nnc(-c2ccc(OCc3ccccc3)cc2)n1 [compound 66] |  | 3.7% | 1500 nM | 
46 | NCCn1nnc(-c2ccc(OCc3ccccc3)cc2)n1 [compound 68] |  | 6% | 70 nM | 
